In patent publication US12077503B2, “Substituted cyclic amides and their use as herbicides” (FMC CORPORATION, priority 2015, dated 2024):

Tests used:
Type in all cases: in vivo
[1] = test system: Kochia (Kochia scoparia); assay: Test A postemergence; details: Bassia scoparia, post-emergence, 240 h, Postemergence
How it was run: (§1)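 Preemergence soil spray on seeded pots or post-emergence spray on 1–2 leaf plants, in loam–sand blend. Greenhouse ~10 d. Visual rating 0–100 against untreated plants.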

[2] = test system: Galium (catchweed bedstraw, Galium aparine); assay: Test A postemergence; details: Galium, post-emergence, 240 h, Postemergence
How it was run: as §1

[3] = test system: pigweed (Amaranthus retroflexus); assay: Test A postemergence; details: Amaranthus retroflexus, post-emergence, 240 h, Postemergence
How it was run: as §1

[4] = test system: blackgrass (Alopecurus myosuroides); assay: Test A postemergence; details: Alopecurus myosuroides, post-emergence, 240 h, Postemergence
How it was run: as §1

[5] = test system: giant foxtail (Setaria faberii); assay: Test A postemergence; details: Setaria faberi, post-emergence, 240 h, Postemergence
How it was run: as §1

[6] = test system: corn (Zea mays); assay: Test A postemergence; details: Zea mays, post-emergence, 240 h, Postemergence
How it was run: as §1

[7] = test system: ragweed (common ragweed, Ambrosia elatior); assay: Test A postemergence; details: Ambrosia artemisiifolia, post-emergence, 240 h, Postemergence
How it was run: as §1

[8] = test system: wheat (Triticum aestivum); assay: Test A postemergence; details: Triticum aestivum, post-emergence, 240 h, Postemergence
How it was run: as §1

[9] = test system: ryegrass, Italian (Italian ryegrass, Lolium multiflorum); assay: Test A postemergence; details: Lolium multiflorum, post-emergence, 240 h, Postemergence
How it was run: as §1

[10] = test system: Kochia (Kochia scoparia); assay: Test A preemergence; details: Bassia scoparia, pre-emergence, 240 h
How it was run: as §1

[11] = test system: pigweed (Amaranthus retroflexus); assay: Test A preemergence; details: Amaranthus retroflexus, pre-emergence, 240 h
[12] = test system: giant foxtail (Setaria faberii); assay: Test A preemergence; details: Setaria faberi, pre-emergence, 240 h
How it was run: as §1

[13] = test system: ragweed (common ragweed, Ambrosia elatior); assay: Test A preemergence; details: Ambrosia artemisiifolia, pre-emergence, 240 h, 500 g ai/ha, preemergence; 0 to 100 scale where 0 is no effect and 100 is complete control; read-out: Ragweed plant response rating
How it was run: as §1

[14] = test system: ryegrass, Italian (Italian ryegrass, Lolium multiflorum); assay: Test A preemergence; details: Lolium multiflorum, pre-emergence, 240 h, Preemergence, 125 g ai/ha; 0 to 100 scale (0 no effect, 100 complete control); read-out: Plant response rating, Ryegrass, Italian
How it was run: as §1

## Cc1cc([C@H]2CN(C)C(=O)[C@@H]2C(=O)Nc2cccc(F)c2C)ccc1F [Compound 1311]
[1]; 125 g ai/ha, visual rating about 10 d after treatment, read-out: Kochia plant response rating (0 to 100 scale)
  pest or weed control at 125 g/ha: 30%
[1]; 500 g ai/ha, visual injury, 0 to 100 scale (0 no effect, 100 complete control), approx. 10 d, read-out: Plant response rating, Kochia
  pest or weed control at 500 g/ha: 50%
[2]; 125 g ai/ha, visual rating about 10 d after treatment, read-out: Galium plant response rating (0 to 100 scale)
  pest or weed control at 125 g/ha: 50%
[2]; 500 g ai/ha, visual injury, 0 to 100 scale (0 no effect, 100 complete control), approx. 10 d, read-out: Plant response rating, Galium
  pest or weed control at 500 g/ha: 60%
[3]; 125 g ai/ha, visual rating about 10 d after treatment, read-out: Pigweed plant response rating (0 to 100 scale)
  pest or weed control at 125 g/ha: 0%
[3]; 500 g ai/ha, visual injury, 0 to 100 scale (0 no effect, 100 complete control), approx. 10 d, read-out: Plant response rating, Pigweed
  pest or weed control at 500 g/ha: 20%
[4]; 125 g ai/ha, visual rating about 10 d after treatment, read-out: Blackgrass plant response rating (0 to 100 scale)
  pest or weed control at 125 g/ha: 60%
[4]; 500 g ai/ha, visual injury, 0 to 100 scale (0 no effect, 100 complete control), approx. 10 d, read-out: Plant response rating, Blackgrass
  pest or weed control at 500 g/ha: 60%
[5]; 125 g ai/ha, visual rating about 10 d after treatment, read-out: Foxtail, Giant plant response rating (0 to 100 scale)
  pest or weed control at 125 g/ha: 90%
[5]; 500 g ai/ha, visual injury, 0 to 100 scale (0 no effect, 100 complete control), approx. 10 d, read-out: Plant response rating, Foxtail, Giant
  pest or weed control at 500 g/ha: 90%
[6]; 125 g ai/ha, visual rating about 10 d after treatment, read-out: Corn plant response rating (0 to 100 scale)
  plant injury at 125 g/ha: 70%
[6]; 500 g ai/ha, visual injury, 0 to 100 scale (0 no effect, 100 complete control), approx. 10 d
  Corn plant response rating (crop injury, 0 = no effect, 100 = complete kill) at 500 g/ha: 80%
[7]; 125 g ai/ha, visual rating about 10 d after treatment, read-out: Ragweed plant response rating (0 to 100 scale)
  pest or weed control at 125 g/ha: 0%
[7]; 500 g ai/ha, visual injury, 0 to 100 scale (0 no effect, 100 complete control), approx. 10 d, read-out: Plant response rating, Ragweed
  pest or weed control at 500 g/ha: 30%
[8]; 125 g ai/ha, visual rating about 10 d after treatment, read-out: Wheat plant response rating (0 to 100 scale)
  plant injury at 125 g/ha: 60%
[8]; 500 g ai/ha, visual injury, 0 to 100 scale (0 no effect, 100 complete control), approx. 10 d, read-out: Plant response rating, Wheat
  plant injury at 500 g/ha: 80%
[9]; 125 g ai/ha, visual rating about 10 d after treatment, read-out: Ryegrass, Italian plant response rating (0 to 100 scale)
  pest or weed control at 125 g/ha: 40%
[9]; 500 g ai/ha, visual injury, 0 to 100 scale (0 no effect, 100 complete control), approx. 10 d, read-out: Plant response rating, Ryegrass, Italian
  pest or weed control at 500 g/ha: 80%
[10]; 500 g ai/ha, preemergence, 0 to 100 scale where 0 is no effect and 100 is complete control, read-out: Kochia plant response rating
  pest or weed control at 500 g/ha: 100%
[10]; Preemergence, 125 g ai/ha, 0 to 100 scale (0 no effect, 100 complete control), read-out: Plant response rating, Kochia
  pest or weed control at 125 g/ha: 70%
[11]; 500 g ai/ha, preemergence, 0 to 100 scale where 0 is no effect and 100 is complete control, read-out: Pigweed plant response rating
  pest or weed control at 500 g/ha: 20%
[11]; Preemergence, 125 g ai/ha, 0 to 100 scale (0 no effect, 100 complete control), read-out: Plant response rating, Pigweed
  pest or weed control at 125 g/ha: 0%
[12]; 500 g ai/ha, preemergence, 0 to 100 scale where 0 is no effect and 100 is complete control, read-out: Foxtail, Giant plant response rating
  pest or weed control at 500 g/ha: 100%
[12]; Preemergence, 125 g ai/ha, 0 to 100 scale (0 no effect, 100 complete control), read-out: Plant response rating, Foxtail, Giant
  pest or weed control at 125 g/ha: 100%
[13]
  pest or weed control at 500 g/ha: 90%
[14]
  pest or weed control at 125 g/ha: 70%
